Experimental data taken from publication PMC11335189, “Revealing molecular determinants governing mambalgin-3 pharmacology at acid-sensing ion channel 1 variants” (Cellular and Molecular Life Sciences: CMLS, 2024).
Positions of bridges follow the written chain, without caps; N, C: chain ends. No end group written: not given here.

Assays:
rASIC1a E362R = biological target: T1, rASIC1a E362R (Rattus norvegicus, UniProt P55926, E362R); experiment: TEVC oocytes, rASIC1a E362R mutant; type: cell-based; conditions: conditioning pH 7.45, stimulating pH 6
T1 construct: expressed in transfected cells; host or cells: Xenopus laevis oocytes (cRNA injection)
T1 sequence (P55926 1-526 E362R): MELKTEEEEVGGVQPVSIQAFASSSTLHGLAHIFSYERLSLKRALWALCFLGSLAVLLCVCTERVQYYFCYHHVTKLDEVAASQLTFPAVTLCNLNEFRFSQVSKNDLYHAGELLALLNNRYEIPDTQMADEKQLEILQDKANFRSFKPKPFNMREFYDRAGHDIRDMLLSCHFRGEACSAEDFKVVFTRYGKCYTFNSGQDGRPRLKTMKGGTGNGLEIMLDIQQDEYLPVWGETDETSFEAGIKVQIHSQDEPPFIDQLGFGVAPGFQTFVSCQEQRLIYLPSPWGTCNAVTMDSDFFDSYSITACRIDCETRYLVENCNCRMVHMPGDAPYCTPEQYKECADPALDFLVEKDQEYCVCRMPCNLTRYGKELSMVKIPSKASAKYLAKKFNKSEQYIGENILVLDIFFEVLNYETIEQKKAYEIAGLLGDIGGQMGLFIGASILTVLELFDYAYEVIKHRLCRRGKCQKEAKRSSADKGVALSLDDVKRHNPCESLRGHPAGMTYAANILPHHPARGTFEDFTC
Description: (§1) Two-electrode voltage-clamp (TEVC) experiments using Xenopus laevis oocytes were conducted as previously described. Briefly, oocytes were surgically removed from anaesthetised female frogs, then treated with collagenase (~ 1 mg/ml, Sigma type I) for 2 h under agitation at room temperature. cRNAs were synthesised using a mMessage mMachine T7 or SP6 transcription kit (Thermo Fisher Scientific Australia Pty Ltd, Scoresby, VIC, Australia) and injected into healthy stage V–VI oocytes at 0.2–20 ng per cell. […] Membrane currents were recorded 2–7 days after cRNA-injection under voltage-clamp at -60 mV (Axon Axoclamp 900 A, Molecular Devices, CA, USA) using two standard glass microelectrodes of 0.5–1 MΩ resistance when filled with 3 M KCl solution. […]
(§2) Specific to this work, the standard protocol was for oocytes to be conditioned at pH 7.45 and channels stimulated every 60 s using a 5 s pH 5 or 6 application, unless stated otherwise. […] Activation curves were determined by conditioning oocytes at pH 8 (Fig. 2e − g; and Fig. 5a and b) or 7.45 (Fig. 6; and Supplementary Fig. 2d and c) for 55 s and applying low pH stimuli from 7.25 to 5.0 for 5 s. Steady-state desensitisation (SSD) was determined by applying conditioning solutions of pH values from 8 to 6 for 115 s prior to stimulation by a pH drop to 5 for 5 s. […] Control pH-dependence curves were determined in the absence of any Ma-3. […]

[1] = system: rASIC1a: rASIC1b chimera C92; experiment: TEVC oocytes, rASIC1a: rASIC1b chimera C92; type: cell-based, rat; conditions: conditioning pH 7.45, stimulating pH 5
Description: as §1, §2

[2] = system: rASIC1a: rASIC1b chimera C166; experiment: TEVC oocytes, rASIC1a: rASIC1b chimera C166; type: cell-based, rat; conditions: conditioning pH 7.45, stimulating pH 5
Description: as §1, §2

H-SLKCYQHGKVVTCHRDMKFCYHNIGMPFRNLKLILQGCSSSCSETENNKCCSTDRCNK (disulfide 4-20, 13-38, 42-50, 51-56 (inferred)) [Ma-3, mambalgin-3]
decrease in Ma-3 activity relative to wild-type rASIC1a (rASIC1a E362R): ~ 5 fold
activity of 300 nM Ma-3 [1]: only partially inhibited
activity of 300 nM Ma-3 [2]: inhibited a greater proportion of current
